Data on seven compounds can be found in patent US20260176295A1, “PHOSPHONATE CONJUGATES AND USES THEREOF” (The Translational Genomics Research Institute, priority 2019, published 2026).

The structures appear in SMILES notation. Like-named read-outs stand apart in the source and are kept apart here.

In data set [1] the target is RON/MST1R (Homo sapiens, UniProt Q04912). Briefly: Ron tyrosine kinase inhibition assay (10 dose IC50 mode, 10 μM ATP). Type of data set: biochemical. The note with it: read-out: Compound IC50. The method, then: Compounds were tested in 10 dose IC50 mode with 3-fold serial dilution starting at 100 μM. […] Reactions were carried out at 10 μM ATP. Data pages include raw data, % Enzyme activity (relative to DMSO controls) and curve fits. Curve fits were performed where the enzyme activities at the highest concentration of compounds were less than 65%.
IC50 values may be determined using GraphPad Prism 5 software. The data may be entered as an X-Y plot into the software as percent inhibition for each concentration of the drug. The concentration values of the drug may be log transformed and the nonlinear regression may be carried out using the “sigmoidal dose-response (variable slope)” option within the GraphPad software to model the data and calculate IC50 values. The IC50 values reported are the concentration of drug at which 50% inhibition was reached.

The nature of data set [2]: Pharmacokinetic (PK) study of phosphate conjugates of BMS-777607 in male swiss albino mice. To be noted: 2 mg/kg single intravenous bolus; for AUC(0-inf) / AUC(0-t) / C0 / clearance / half-life / Vd / Kp: mouse; for Vd: read-out: VSS; for Kp: read-out: bone to plasma ratios (AUClast). Type of data set: in vivo. The procedure:
For extended time points (>24 hrs), BID dosing was done 8 hr apart.
The study was performed using sparse design to obtain composite profile (n=3/time point) as summarized in the table1. Blood and whole bone with marrow were collected at predetermined time points. At each time point, about 120 μL of blood was collected by retro-orbital sinus puncture into a labeled microfuge tube containing 200 mM K2EDTA solution (20 μL per mL of blood). The blood samples were processed within 30 minutes to obtain the plasma samples. At respective time points, blood samples were collected and animals were euthanized to harvest whole femur bone (bone with marrow). All plasma and bone with marrow samples were stored at −80° C.
The plasma and bone with bone marrow homogenate samples were analyzed using a fit-for purpose LC-MS/MS method with a lower limit of quantification (LLOQ) of 1.00 ng/ml (plasma) and 11.0 ng/g (bone). In some instances, bone marrow was separated from bone and analyzed independently. The pharmacokinetic parameters of the drugs were calculated using the non-compartmental analysis tool of validated Phoenix® WinNonlin® software (version 8.0).

Data set [3] addresses T1, RON Kinase Enzyme (Homo sapiens, UniProt Q04912).
T1 construct: purchased Promega V3921
The experiment in a line: Kinase ADP-Glo inhibition assay. To be noted: 25 μM ATP. It counts as biochemical. The method, then:
• Assay Buffer • 40 mM Tris-HCl pH7.5, 20 mM MgCl2, 0.1 mg/mL BSA • RON Kinase Enzyme System (Promega #: V3921) • Axltide Substrate • RON Kinase Enzyme • ADP-Glo™ Assay (Promega #: V9101) • ATP, 10 mM • ADP-Glo™ Reagent • Kinase Detection Reagent • 384-well white assay plates
A ten point serial dilution of compound was prepared at 5× concentration in assay buffer with the final assay concentrations starting at 30 μM, 10 μM, 3 μM, 1 μM . . . 0 μM. Enzyme, substrate, and ATP were used at 25 ng, 200 ng and 25 μM, respectively. The assay plate was set up by mixing the components in a total reaction volume of 10 μL per well. The plate was centrifuged gently for 10 seconds and incubated at room temperature (RT) for 60 minutes in the dark. The ADP-Glo Reagent and kinase detection reagent were added and incubated as recommended. The reaction was quantified by measuring luminescence on the Perkin Elmer Envision plate reader. Data was analyzed using Graphpad Prism 7 software.

The mark [4] stands for this setting: male, Swiss Albino, in vivo, iv, 2 mg/kg, Bone with Bone marrow.
Where [5] appears, read: male, Swiss Albino, in vivo, iv, 2 mg/kg, Plasma.
[6] abbreviates: in vivo, Plasma, male Swiss Albino mice.

T1 sequence (Q04912 25-1400): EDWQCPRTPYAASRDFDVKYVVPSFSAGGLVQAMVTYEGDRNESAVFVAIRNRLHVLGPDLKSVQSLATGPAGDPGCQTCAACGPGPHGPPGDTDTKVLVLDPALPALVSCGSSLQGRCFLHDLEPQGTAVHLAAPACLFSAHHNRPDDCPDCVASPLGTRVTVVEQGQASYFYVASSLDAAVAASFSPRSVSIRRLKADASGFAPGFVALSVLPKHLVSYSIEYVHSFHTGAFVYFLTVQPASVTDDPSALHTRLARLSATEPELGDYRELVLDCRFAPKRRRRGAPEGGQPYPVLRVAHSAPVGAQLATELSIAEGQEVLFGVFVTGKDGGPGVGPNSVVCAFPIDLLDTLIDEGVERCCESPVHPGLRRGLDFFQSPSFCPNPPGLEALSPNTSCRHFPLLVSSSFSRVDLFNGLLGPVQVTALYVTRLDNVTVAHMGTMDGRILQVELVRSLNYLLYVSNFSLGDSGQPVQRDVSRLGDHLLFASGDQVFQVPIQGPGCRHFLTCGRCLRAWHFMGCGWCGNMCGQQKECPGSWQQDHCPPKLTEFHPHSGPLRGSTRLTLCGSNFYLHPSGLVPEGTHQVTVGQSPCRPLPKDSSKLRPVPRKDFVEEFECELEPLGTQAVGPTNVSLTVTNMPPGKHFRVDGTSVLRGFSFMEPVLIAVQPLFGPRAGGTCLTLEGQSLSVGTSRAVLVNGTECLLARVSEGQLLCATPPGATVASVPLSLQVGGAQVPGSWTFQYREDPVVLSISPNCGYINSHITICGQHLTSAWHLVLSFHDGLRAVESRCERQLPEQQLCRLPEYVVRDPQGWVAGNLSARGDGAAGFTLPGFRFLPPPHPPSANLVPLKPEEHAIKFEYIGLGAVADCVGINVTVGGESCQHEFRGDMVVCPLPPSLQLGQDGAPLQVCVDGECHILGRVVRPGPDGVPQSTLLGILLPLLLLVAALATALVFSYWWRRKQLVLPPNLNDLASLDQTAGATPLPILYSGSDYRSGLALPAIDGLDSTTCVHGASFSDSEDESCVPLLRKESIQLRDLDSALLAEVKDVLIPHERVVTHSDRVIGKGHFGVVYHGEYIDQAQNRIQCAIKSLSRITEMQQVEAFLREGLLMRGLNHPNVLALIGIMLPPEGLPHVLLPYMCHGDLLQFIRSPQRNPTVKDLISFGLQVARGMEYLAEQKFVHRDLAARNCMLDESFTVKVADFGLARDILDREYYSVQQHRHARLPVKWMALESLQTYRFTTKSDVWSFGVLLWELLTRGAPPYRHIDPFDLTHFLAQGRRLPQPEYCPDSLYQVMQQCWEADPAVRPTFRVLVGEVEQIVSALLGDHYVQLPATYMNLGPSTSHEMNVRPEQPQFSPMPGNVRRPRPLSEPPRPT
Sequence of RON/MST1R (Q04912 25-1400): as above

Consider `CCOc1ccn(-c2ccc(F)cc2)c(=O)c1C(=O)Nc1ccc(Oc2ccnc(N)c2Cl)c(F)c1` [BMS-777607, N-(4-((2-amino-3-chloropyridin-4-yl)oxy)-3-fluorophenyl)-4-ethoxy-1-(4-fluorophenyl)-2-oxo-1,2-dihydropyridine-3-carboxamide, reference compound], for which the IC50 in data set [1] was 17.2 nM. In data set [2] (Plasma), this compound displayed an AUC(0-inf) of 1690 ng·h/mL, an exposure AUC(0-t) of 1690 ng·h/mL, a C0 of 3610 ng/mL and a clearance of 19.7 mL/min/kg. Besides, in data set [2] (Plasma), the half-life is 3.42 h and the Vd is 1.42 L/kg. For the same compound, the AUC(0-t) in data set [2] (bone (without marrow), Bone only) was 296 ng·h/mL. Moreover, in data set [2] (bone / plasma), the Kp is 0.17. Moreover, the IC50 in data set [3] is 18 nM.
For the compound `CCOc1ccn(-c2ccc(F)cc2)c(=O)c1C(=O)Nc1ccc(Oc2ccnc(NC(P(=O)(O)O)P(=O)(O)O)c2Cl)c(F)c1` [Compound 1, (((3-chloro-4-(4-(4-ethoxy-1-(4-fluorophenyl)-2-oxo-1,2-dihydropyridine-3-carboxamido)-2-fluorophenoxy)pyridin-2-yl)amino)methylene)diphosphonic acid], the IC50 in data set [1] and in data set [3] was 13400 nM each time.
The compound `CCOc1ccn(-c2ccc(F)cc2)c(=O)c1C(=O)Nc1ccc(Oc2ccnc(NC(P(=O)(OCC)OCC)P(=O)(OCC)OCC)c2Cl)c(F)c1` [Compound 9, tetraethyl (((3-chloro-4-(4-(4-ethoxy-1-(4-fluorophenyl)-2-oxo-1,2-dihydropyridine-3-carboxamido)-2-fluorophenoxy)pyridin-2-yl)amino)methylene)bis(phosphonate)] came in with an IC50 in data set [3] of 33800 nM.
As for `Nc1nccc(Oc2ccc(NC(=O)c3c(OCP(=O)([O-])[O-])ccn(-c4ccc(F)cc4)c3=O)cc2F)c1Cl.[Na+].[Na+]` [Compound 10, (((3-((4-((2-amino-3-chloropyridin-4-yl)oxy)-3-fluorophenyl)carbamoyl)-1-(4-fluorophenyl)-2-oxo-1,2-dihydropyridin-4-yl)oxy)methyl)phosphonate], the accumulation in bone result in data set [2] was “accumulated in the bone”. Further, the AUCinf in data set [2] (Bone with Bone marrow) turned out to be 2920 h*ng · h/mL. Besides, in data set [2] (setting [4]), the AUC(0-t) turned out to be 2420 ng·h/mL, the clearance amounted to 11.4 mL/min/kg, the half-life was 1.61 h and the Vd turned out to be 1.5 L/kg. Further, in data set [2] (setting [5]), the AUC(0-t) worked out at 9830 ng·h/mL, the clearance is 3.36 mL/min/kg, the half-life is 0.987 h and the Vd came to 0.179 L/kg. Besides, the Kp in data set [2] (in vivo) stood at 0.25. For the same compound, in data set [2] (in vivo, Plasma), the AUC(0-inf) was determined as 9910 ng·h/mL and the C0 came out at 16000 ng/mL. Further, the IC50 in data set [3] turned out to be 547 nM.
In data set [3], `CCOc1ccn(-c2ccc(F)c(OCCC(P(=O)(O)O)P(=O)(O)O)c2)c(=O)c1C(=O)Nc1ccc(Oc2ccnc(N)c2Cl)c(F)c1` [Compound 11, sodium (3-(5-(3-((4-((2-amino-3-chloropyridin-4-yl)oxy)-3-fluorophenyl)carbamoyl)-4-ethoxy-2-oxopyridin-1(2H)-yl)-2-fluorophenoxy)propane-1,1-diyl)bis(phosphonate)] showed an IC50 of 1270 nM.
In data set [2] (setting [6]), `CCOc1ccn(-c2ccc(F)c(OP(=O)(O)O)c2)c(=O)c1C(=O)Nc1ccc(Oc2ccnc(N)c2Cl)c(F)c1` [Compound 12, sodium 5-(3-((4-((2-amino-3-chloropyridin-4-yl)oxy)-3-fluorophenyl)carbamoyl)-4-ethoxy-2-oxopyridin-1(2H)-yl)-2-fluorophenyl phosphate] came in with an AUC(0-inf) of 963 ng·h/mL, an AUC(0-t) of 959 ng·h/mL, a C0 of 4680 ng/mL and a clearance of 34.6 mL/min/kg. In data set [2] (setting [6]), the half-life is 1.17 h and the Vd came to 0.879 L/kg. Also, the IC50 in data set [3] turned out to be 58 nM.
In the case of `CCOc1ccn(-c2ccc(F)c(COP(=O)(O)O)c2)c(=O)c1C(=O)Nc1ccc(Oc2ccnc(N)c2Cl)c(F)c1` [Compound 13, sodium 5-(3-((4-((2-amino-3-chloropyridin-4-yl)oxy)-3-fluorophenyl)carbamoyl)-4-ethoxy-2-oxopyridin-1(2H)-yl)-2-fluorobenzyl phosphate], the IC50 in data set [3] is 2430 nM.
